The record followed here is patent publication US20230107941A1, “HEPATITIS B CAPSID ASSEMBLY MODULATORS” (Venatorx Pharmaceuticals, Inc., priority 2019, published 2023).

Where two headings read alike, the source gives them in different places. Bounds are passed on as bounds.

One may read the EC50 as the concentration needed to bring the measured effect to its halfway point. Broadly, the CC50 is the concentration at which the toxic effect on the cells reaches its halfway point. Higher therefore signals lower toxicity to the cells.

One data set deals with HBV. Nature of the data set: In vitro antiviral assay: anti-HBV replication in HepAD38 cells (extracellular HBV DNA by QPCR). The note with it: 7 days incubation, extracellular HBV DNA by QPCR, read-out: Anti-HBV EC50. The data set is classed as cell-based, hepatitis B virus (genotype D, serotype ayw). Summed up: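 Read-out is extracellular HBV DNA (copies/mL, QPCR standard curve) after 7-day exposure of tet-free HepAD38 cells to 10-fold dilutions from 1 μM down to 10 pM. Values normalised to DMSO vehicle; EC50 from 4-parameter nonlinear regression, with entecavir validating each run.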

Data set [1] is described as follows: In vitro cytotoxicity assay (MTT cell viability) in HepG2 cells. As to conditions: human. The format is cell-based, human. Summed up: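 CC50 was derived by 4-parameter fit of viability relative to vehicle controls, measured as MTT formazan absorbance at 492 nm after 3–4 h of reagent and DMSO solubilization. Before that, HepG2 cells seeded overnight at 20,000/well were incubated 7 days at 37°C with compound from 30 μM down to 1.0 nM in half-log steps.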

The mark [2] stands for this setting: Hepatitis B virus, HePAD38, 168 h.

As to `Cc1c(C(=O)Nc2ccc(N3CCOCC3)nc2)c(C)n(C)c1C(=O)C(=O)NC(C)(C)C` [Example 62, 5-(2-(tert-butylamino)-2-oxoacetyl)-1,2,4-trimethyl-N-(6-morpholinopyridin-3-yl)-1H-pyrrole-3-carboxamide], the EC50 in the data set on HBV (setting [2]) was above 1 µM. The CC50 at 7 days in data set [1] was above 30 µM.
Take `Cc1cc(NC(=O)c2c(C)c(C(=O)C(=O)NC3(C)CC(OP(=O)(O)O)C3)n(C)c2C)ccc1F` (stereo not drawn) [Example 63, (1s,3s)-3-(2-(4-((4-fluoro-3-methylphenyl)carbamoyl)-1,3,5-trimethyl-1H-pyrrol-2-yl)-2-oxoacetamido)-3-methylcyclobutyl dihydrogen phosphate]: in the data set with HBV, the concentration for a half-maximal effect (EC50) is above 1 µM. For the same compound, in data set [1], the 50% cytotoxic concentration (CC50) at 7 days is above 30 µM.
Take `Cc1c(C(=O)Nc2cccc(S(N)(=O)=O)c2)c(C)n(C)c1C(=O)C(=O)NC(C)(C)C` [Example 65, 5-(2-(tert-butylamino)-2-oxoacetyl)-1,2,4-trimethyl-N-(3-sulfamoylphenyl)-1H-pyrrole-3-carboxamide]: in the data set on HBV (setting [2]), the EC50 is above 1 µM. Further, the CC50 at 7 days in data set [1] is above 30 µM.
As for `Cc1cccc(NC(=O)c2c(C)c(C(=O)C(=O)NC(C)(C)C)n(C)c2C)c1F` [Example 66, 5-(2-(tert-butylamino)-2-oxoacetyl)-N-(2-fluoro-3-methylphenyl)-1,2,4-trimethyl-1H-pyrrole-3-carboxamide], the EC50 with HBV (setting [2]) is below 0.05 µM. The half-maximal cytotoxic concentration (CC50) at 7 days in data set [1] was above 30 µM.
The like results for `Cc1cc(F)cc(NC(=O)c2c(C)c(C(=O)C(=O)NC(C)(C)C)n(C)c2C)c1` [Example 67, 5-(2-(tert-butylamino)-2-oxoacetyl)-N-(3-fluoro-5-methylphenyl)-1,2,4-trimethyl-1H-pyrrole-3-carboxamide] were, in that order, below 0.05 µM and above 30 µM.
`Cc1ccc(F)c(NC(=O)c2c(C)c(C(=O)C(=O)NC(C)(C)C)n(C)c2C)c1` [Example 68, 5-(2-(tert-butylamino)-2-oxoacetyl)-N-(2-fluoro-5-methylphenyl)-1,2,4-trimethyl-1H-pyrrole-3-carboxamide]: the half-maximal effective concentration (EC50) in the data set with HBV (setting [2]) is below 0.05 µM. In addition, in data set [1], the CC50 at 7 days is above 30 µM.
In the same order, the values of `Cc1c(C(=O)Nc2ccc(F)c(S(C)(=O)=O)c2)c(C)n(C)c1C(=O)C(=O)NC(C)(C)C` [Example 69, 5-(2-(tert-butylamino)-2-oxoacetyl)-N-(4-fluoro-3-(methylsulfonyl)phenyl)-1,2,4-trimethyl-1H-pyrrole-3-carboxamide] are above 1 µM and above 30 µM.
The like results for `CC(=O)N1CCC(CO)(NC(=O)C(=O)c2c(C)c(C(=O)Nc3ccc(F)c(C)c3)c(C)n2C)CC1` [Example 72, 5-(2-((1-acetyl-4-(hydroxymethyl)piperidin-4-yl)amino)-2-oxoacetyl)-N-(4-fluoro-3-methylphenyl)-1,2,4-trimethyl-1H-pyrrole-3-carboxamide] were, in that order, below 0.05 µM and above 30 µM.
For the compound `Cc1cc(NC(=O)c2c(C)c(C(=O)C(=O)NC3(CO)CCN(S(C)(=O)=O)CC3)n(C)c2C)ccc1F` [Example 73, N-(4-fluoro-3-methylphenyl)-5-(2-((4-(hydroxymethyl)-1-(methylsulfonyl)piperidin-4-yl)amino)-2-oxoacetyl)-1,2,4-trimethyl-1H-pyrrole-3-carboxamide], the EC50 in the data set with HBV (setting [2]) is below 0.05 µM. Also, the 50% cytotoxic concentration (CC50) at 7 days in data set [1] was above 30 µM.
As for `Cc1cc(NC(=O)c2c(C)c(C(=O)C(=O)NC3(CO)CCN(C(=O)c4cnn(C)c4)CC3)n(C)c2C)ccc1F` [Example 74, N-(4-fluoro-3-methylphenyl)-5-(2-((4-(hydroxymethyl)-1-(1-methyl-1H-pyrazole-4-carbonyl)piperidin-4-yl)amino)-2-oxoacetyl)-1,2,4-trimethyl-1H-pyrrole-3-carboxamide], the half-maximal effective concentration (EC50) in the data set with HBV (setting [2]) is below 0.05 µM. The 50% cytotoxic concentration (CC50) at 7 days in data set [1] is above 30 µM.
The like results for `Cc1cc(NC(=O)c2c(C)c(C(=O)C(=O)NC3(CO)CCN(C(=O)c4cn(C)nc4C(F)F)CC3)n(C)c2C)ccc1F` [Example 75, 5-(2-((1-(3-(difluoromethyl)-1-methyl-1H-pyrazole-4-carbonyl)-4-(hydroxymethyl)piperidin-4-yl)amino)-2-oxoacetyl)-N-(4-fluoro-3-methylphenyl)-1,2,4-trimethyl-1H-pyrrole-3-carboxamide] were, in that order, below 0.05 µM and above 30 µM.
The like results for `Cc1cc(NC(=O)c2c(C)c(C(=O)C(=O)NC3(CO)CCN(C(=O)c4ccnn4C)CC3)n(C)c2C)ccc1F` [Example 76, N-(4-fluoro-3-methylphenyl)-5-(2-((4-(hydroxymethyl)-1-(1-methyl-1H-pyrazole-5-carbonyl)piperidin-4-yl)amino)-2-oxoacetyl)-1,2,4-trimethyl-1H-pyrrole-3-carboxamide] were, in that order, below 0.05 µM and above 30 µM.
In the same order, the values of `Cc1c(C(=O)Nc2cccc(Cl)n2)c(C)n(C)c1C(=O)C(=O)N[C@H](C)C(F)(F)F` [Example 77, (R)-N-(6-chloropyridin-2-yl)-1,2,4-trimethyl-5-(2-oxo-2-((1,1,1-trifluoropropan-2-yl)amino)acetyl)-1H-pyrrole-3-carboxamide] are 0.05 to 0.499 µM and above 30 µM.
On to `CC(=O)N1CC[C@H](NC(=O)C(=O)c2c(C)c(C(=O)Nc3ccc(F)c(C)c3)c(C)n2C)C[C@H]1C` [Example 78, 5-(2-(((2R,4S)-1-acetyl-2-methylpiperidin-4-yl)amino)-2-oxoacetyl)-N-(4-fluoro-3-methylphenyl)-1,2,4-trimethyl-1H-pyrrole-3-carboxamide], for which the EC50 with HBV (setting [2]) was below 0.05 µM. The CC50 at 7 days in data set [1] is above 30 µM.
The like results for `Cc1c(C(=O)Nc2cc(Cl)cc(Cl)c2)c(C)n(C)c1C(=O)C(=O)N[C@H](C)C(F)(F)F` [Example 79, (R)-N-(3,5-dichlorophenyl)-1,2,4-trimethyl-5-(2-oxo-2-((1,1,1-trifluoropropan-2-yl)amino)acetyl)-1H-pyrrole-3-carboxamide] were, in that order, below 0.05 µM and 5 to 30 µM.
The like results for `Cc1cc(NC(=O)c2c(C)c(C(=O)C(=O)NC34CC(C3)C4)n(C)c2C)ccc1F` [Example 80, 5-(2-(bicyclo[1.1.1]pentan-1-ylamino)-2-oxoacetyl)-N-(4-fluoro-3-methylphenyl)-1,2,4-trimethyl-1H-pyrrole-3-carboxamide] were, in that order, below 0.05 µM and 5 to 30 µM.
On to `Cc1cc(NC(=O)c2c(C)c(C(=O)C(=O)NC3(C)CNC(=O)C34CC4)n(C)c2C)ccc1F` (stereo not drawn) [Example 81, N-(4-fluoro-3-methylphenyl)-1,2,4-trimethyl-5-(2-((7-methyl-4-oxo-5-azaspiro[2.4]heptan-7-yl)amino)-2-oxoacetyl)-1H-pyrrole-3-carboxamide], for which the concentration giving a half-maximal response (EC50) in the data set on HBV (setting [2]) was below 0.05 µM. Besides, in data set [1], the half-maximal cytotoxic concentration (CC50) at 7 days was above 30 µM.
In the same order, the values of `Cc1cc(NC(=O)c2c(C)c(C(=O)C(=O)NC34CC(O)(C3)C4)n(C)c2C)ccc1F` [Example 82, N-(4-fluoro-3-methylphenyl)-5-(2-((3-hydroxybicyclo[1.1.1]pentan-1-yl)amino)-2-oxoacetyl)-1,2,4-trimethyl-1H-pyrrole-3-carboxamide] are below 0.05 µM and above 30 µM.
